Test results as given in patent US20220305012A1, “L[…] TREATING SLEEP ISSUES” (EISAI R&D MANAGEMENT CO., LTD., priority 2019, published 2022).

Tests used:
Format in all cases: in vivo, human
[1] = system: Subjects Having Insomnia Disorder; assay: Example 1: Quality of Sleep rating (scale 1 to 9); settings: for Quality of Sleep score, Mean (SD): Baseline; for Quality of Sleep score, Treatment difference (vs placebo): change from baseline at Month 6
Description: (§1) In some embodiments, sleep diaries were used to assess sleep parameters reported by subjects (i.e., subjective assessments) including subjective sleep onset latency (sSOL), subjective sleep efficiency (sSE), subjective WASO (sWASO), and subjective total sleep time (sTST). Subjects were instructed to complete the Sleep Diary developed based on the consensus Sleep Diary as described in Carney et al., “The consensus sleep diary: standardizing prospective sleep self-monitoring,” Sleep 2012; 35(2):287-302. In some embodiments, the Sleep Diary was used to assess the subject's global perception of quality of sleep on the previous night with the following question: “How would you rate the quality of your sleep last night?” Subjects rated the quality of their sleep on a scale from 1 to 9, with 1 being extremely poor and 9 being extremely good. In some embodiments, the Sleep Diary was used to assess subjective ratings of morning sleepiness with the following question: “How alert/sleepy do you feel this morning?” Subjects rated their sleepiness/alertness level on a Likert scale from 1 to 9, with 1 being extremely sleepy and 9 being extremely alert.
(§2) Treatment period 1 began with the first dose of randomized study medication (placebo, 5 mg of lemborexant, or 10 mg of lemborexant). Subjects completed sleep diaries daily in the morning, within one hour of waketime. The subjects were assessed by a clinician one month, two months, three months, and six months after initiation of Treatment period 1.

[2] = system: Subjects Having Insomnia Disorder; assay: Example 1: Morning Sleepiness rating (scale 1 to 9); settings: for Morning Sleepiness score, Mean (SD): Baseline; for Morning Sleepiness score, Treatment difference (vs placebo): change from baseline at Month 6
Description: as §1, §2

[3] = Example 2: plasma concentrations of lemborexant and metabolites
Protocol: Within 5 minutes of the subject's mean habitual bedtime, study drug was administered and an overnight polysomnogram recording was initiated. At completion of the recording the following morning (Day 2), postural stability and cognitive performance were assessed. On the Day 2 evening, subjects returned to the clinic and a blood sample was collected before administering study drug, and then study drug was administered within 5 minutes of the subject's mean habitual bedtime. Again, a polysomnogram recording was initiated. The next morning (Day 3), postural stability and cognitive performance were assessed. A blood sample was also collected.
On the evening of Day 30, subjects returned to the clinic. A pre-dose blood sample was collected and study drug was again administered within 5 minutes of the subject's mean habitual bedtime. A polysomnogram recording was initiated. The following morning (Day 31), postural stability and cognitive performance were assessed and a blood sample was obtained. The ISI, FSS, EQ-5D-3L and PGI-Insomnia were administered. Blood and urine samples were collected for routine safety assessment. An electrocardiogram was performed, and vital signs and weight were assessed. The eC-SSRS was then administered to the subject. At 1.5 hours after waketime, subjects rated their morning sleepiness level.

[4] = system: Subjects Having Insomnia Disorder; assay: Example 2: minutes asleep in sleep stages (N1, N2, N3, REM, non-REM); settings: both doses (FIG. 15)
Protocol: FIG. 13A, FIG. 13B, and FIG. 13C show the change from baseline (least squares mean) in the minutes asleep during Stage N1, Stage N2, and Stage N3 sleep, respectively, at Nights 1/2 and Nights 29/30 in patients treated with placebo, 6.25 mg of zolpidem, 5 mg of lemborexant, or 10 mg of lemborexant.

[5] = system: Subjects Having Insomnia Disorder; assay: Example 2: REM latency; settings: both doses (FIG. 16)
[6] = system: Subjects Having Insomnia Disorder; assay: Example 3: proportion of sSOL responders (pooled Examples 1 and 2)
Protocol: The data collected in studies described in Example 1 and Example 2 were pooled and the response of each subject was analyzed.

[7] = Lemborexant 5 mg dose, Day 2 Post-Dose
[8] = Lemborexant 5 mg dose, Day 2 Pre-Dose
[9] = Lemborexant 5 mg dose, Day 29 Post-Dose
[10] = Lemborexant 5 mg dose, Day 29 Pre-Dose
[11] = Lemborexant 10 mg dose, Day 2 Post-Dose
[12] = Lemborexant 10 mg dose, Day 2 Pre-Dose
[13] = Lemborexant 10 mg dose, Day 29 Post-Dose
[14] = Lemborexant 10 mg dose, Day 29 Pre-Dose
[15] = First 7 Days, Lemborexant 10 mg

Cc1ncc(OC[C@@]2(c3cccc(F)c3)C[C@H]2C(=O)Nc2ccc(F)cn2)c(C)n1 [Lemborexant, (1R,2S)-2-(((2,4-dimethylpyrimidin-5-yl)oxy)methyl)-2-(3-fluorophenyl)-N-(5-fluoropyridin-2-yl)cyclopropanecarboxamide]
Quality of Sleep score, Mean (SD) ([1]; 5 mg): 4.0 (1.3) | Quality of Sleep score, Treatment difference (vs placebo) ([1]; 5 mg): 0.28 | Quality of Sleep score, Mean (SD) ([1]; 10 mg): 4.0 (1.4) | Quality of Sleep score, Treatment difference (vs placebo) ([1]; 10 mg): 0.32 | quality of sleep compared with placebo ([1]; at 6 months (Table 8)): significantly improved | Morning Sleepiness score, Mean (SD) ([2]; 5 mg): 3.93 (1.35) | Morning Sleepiness score, Treatment difference (vs placebo) ([2]; 5 mg): 0.15 | Morning Sleepiness score, Mean (SD) ([2]; 10 mg): 3.93 (1.32) | Morning Sleepiness score, Treatment difference (vs placebo) ([2]; 10 mg): 0.26 | morning sleepiness compared with placebo ([2]; at 6 months (Table 8)): significantly improved | Plasma Concentrations, BLQ (<0.0500 ng/mL), n (%) [3, 7]: 6 (2.3) n (%) | Plasma Concentrations, Mean (SD) [3, 7]: 5.3 (2.55) ng/mL | Plasma Concentrations, Median [3, 7]: 5.0 ng/mL | Plasma Concentrations, BLQ (<0.0500 ng/mL), n (%) [3, 8]: 10 (3.9) n (%) | Plasma Concentrations, Mean (SD) [3, 8]: 2.1 (1.48) ng/mL | Plasma Concentrations, Median [3, 8]: 1.8 ng/mL | Plasma Concentrations, BLQ (<0.0500 ng/mL), n (%) [3, 9]: 6 (2.4) n (%) | Plasma Concentrations, Mean (SD) [3, 9]: 10.7 (6.66) ng/mL | Plasma Concentrations, Median [3, 9]: 9.1 ng/mL | Plasma Concentrations, BLQ (<0.0500 ng/mL), n (%) [3, 10]: 8 (3.1) n (%) | Plasma Concentrations, Mean (SD) [3, 10]: 7.3 (5.60) ng/mL | Plasma Concentrations, Median [3, 10]: 6.1 ng/mL | Plasma Concentrations, BLQ (<0.0500 ng/mL), n (%) [3, 11]: 5 n (%) | Plasma Concentrations, Mean (SD) [3, 11]: 11.5 ng/mL | Plasma Concentrations, Median [3, 11]: 10.4 ng/mL | Plasma Concentrations, BLQ (<0.0500 ng/mL), n (%) [3, 12]: 15 n (%) | Plasma Concentrations, Mean (SD) [3, 12]: 4.4 ng/mL | Plasma Concentrations, Median [3, 12]: 3.7 ng/mL | Plasma Concentrations, BLQ (<0.0500 ng/mL), n (%) [3, 13]: 6 n (%) | Plasma Concentrations, Mean (SD) [3, 13]: 21.1 ng/mL | Plasma Concentrations, Median [3, 13]: 19.6 ng/mL | Plasma Concentrations, BLQ (<0.0500 ng/mL), n (%) [3, 14]: 6 n (%) | Plasma Concentrations, Mean (SD) [3, 14]: 15.1 ng/mL | Plasma Concentrations, Median [3, 14]: 13.7 ng/mL | non-REM sleep [4]: greater increase in non-REM sleep compared to treatment with placebo and zolpidem ER | REM latency [5]: greater mean decrease in REM latency compared to treatment with placebo and zolpidem ER | Subjective Sleep Onset Latency Responder, No, (%) ([6]; First 7 Days, Lemborexant 5 mg): (86.3) % | Subjective Sleep Onset Latency Responder, Yes, (%) ([6]; First 7 Days, Lemborexant 5 mg): (12.4) % | Subjective Sleep Onset Latency Responders, Difference of proportion vs. Placebo ([6]; First 7 Days, Lemborexant 5 mg): 7.80 | Subjective Sleep Onset Latency Responder, No, (%) [6, 15]: (86.2) % | Subjective Sleep Onset Latency Responder, Yes, (%) [6, 15]: (12.6) % | Subjective Sleep Onset Latency Responders, Difference of proportion vs. Placebo [6, 15]: 7.80 | Subjective Sleep Onset Latency Responder, No, (%) ([6]; Month 1, Lemborexant 5 mg): (76.8) % | Subjective Sleep Onset Latency Responder, Yes, (%) ([6]; Month 1, Lemborexant 5 mg): (18.4) % | Subjective Sleep Onset Latency Responders, Difference of proportion vs. Placebo ([6]; Month 1, Lemborexant 5 mg): 8.28 | Subjective Sleep Onset Latency Responder, No, (%) ([6]; Month 1, Lemborexant 10 mg): (75.8) % | Subjective Sleep Onset Latency Responder, Yes, (%) ([6]; Month 1, Lemborexant 10 mg): (21.0) % | Subjective Sleep Onset Latency Responders, Difference of proportion vs. Placebo ([6]; Month 1, Lemborexant 10 mg): 11.14 | proportion of sSOL responders compared with placebo ([6]; both doses, first 7 days and end of month 1, responder: sSOL of 20 or less minutes provided baseline sSOL at least 30 minutes (Table 30)): statistically significantly superior
